{
  "source": "paper PMC10571957",
  "about": "“αV-Integrin-Dependent Inhibition of Glioblastoma Cell Migration, Invasion and Vasculogenic Mimicry by the uPAcyclin Decapeptide” (Cancers, 2023)",
  "key": {"[1]": {"test_system": "U87-MG cells (αV integrin)", "assay": "FITC-uPAcyclin receptor binding/competition, U87-MG", "design": "species or system human", "conditions": "for FITC-uPAcyclin binding, single values: T-test sheet, single replicates of all EXPTs", "protocol": "The U87-MG, U251-MG, and U138-MG cell lines were harvested and acid-treated, as described. Then, 2 × 10^6 cells/sample were exposed for 30 min at 4 °C to uPAcyclin or S-uPAcyclin at the indicated concentrations, or with the following antibodies: VNR147 monoclonal anti-αV integrin (Chemicon Int. Inc., Temecula, CA, USA), polyclonal anti-αV (Millipore, Burlington, MA, USA), monoclonal anti-α2 (Chemicon Int. Inc., Temecula, CA, USA), polyclonal anti-actin (Sigma-Aldrich, St. Louis, MO, USA), monoclonal anti-GAPDH (Abcam, Cambridge, UK), and purified vitronectin (VN, Corning, Glendale, AZ, USA). The cells were subsequently incubated with 50 nM FITC-uPAcyclin for 2 h at 4 °C, as described. At the end of incubation, the cells were washed and the cell surface-associated fluorescence was determined using a fluorimeter (VICTOR^TM X3-PerkinElmer, Waltham, MA, USA). All binding assays were performed three times, with duplicate samples, and analyzed as described in Section 2.11.\nFigure 2 αV expression of U87-MG, U251-MG, and U138-MG GBM cells and specific binding of FITC-uPAcyclin. (A) U87-MG, U251-MG, U138-MG, HEK-293, and HEK-293/αV total cell lysates were subjected to Western blotting and probed using polyclonal anti-αV or polyclonal anti-actin as loading control. (B) A total of 2 × 10^6 U87-MG, U251-MG, U138-MG, HEK-293/αV, or HEK-293 cells were pre-incubated for 30 min at 4 °C with 500 nM uPAcyclin and further exposed to 50 nM FITC-uPAcyclin for 2 h at 4 °C. At the end of the incubation, the unbound material was washed and cell-associated FITC-uPAcyclin was quantitated by a fluorimeter. The net value of cell-surface-associated fluorescence, corresponding to the specific binding, is shown. (C) A total of 2 × 10^6 U87-MG, U251-MG, and U138-MG cells were pre-incubated for 30 min at 4 °C with increasing concentrations of unlabeled uPAcyclin and then assayed for binding of FITC-uPAcyclin, for 2 h at 4 °C. Cell-surface-associated fluorescence, as percentage of the samples […], is shown. (D) U87-MG cells were pre-incubated with uPAcyclin (1 pM, 100 nM), scrambled uPAcyclin (S-uPAcyclin, 1 pM and 100 nM)), vitronectin (200 µM), anti-αv polyclonal (anti-αV Pclonal, 5 µg/mL) or monoclonal (anti-αV MoAb, 5 µg/mL) or anti-α2 monoclonal (anti-α2 MoAb, 1 µg/mL), polyclonal anti-actin, and monoclonal anti GAPDH. Then, cells were treated as in B (* p-value < 0.05; *** p-value < 0.001)."}, "[2]": {"test_system": "U87-MG cells", "assay": "Boyden chamber migration (chemotaxis), U87-MG", "type": "cell-based, human", "conditions": "for % of the basal: sheet all data, Average all expts; for % of basal, average / % of basal / cells n°/field / % of basal (T-TEST list): sheet data scrambled; for % of basal, average: Average 2 expts", "protocol": "The migration and invasion assays were performed using Boyden chambers and 8 µm pore size PVP-free filters coated with 50 µg/mL of collagen type VI (Sigma), as previously described. For the invasion assays, collagen-coated filters were further coated with 50 µg/mL Matrigel^TM (Sigma). Briefly, 11 × 10^4 U87-MG, 4 × 10^4 U251-MG, or 4 × 10^4 U138-MG/sample were pre-treated for 40 min at 37 °C with the indicated effectors. Then, the cells were allowed to migrate for 3 h or to invade for 5 h at 37 °C toward 5% FBS in DMEM/0.1% BSA. At the end of both assays, the cells on the lower filter surface were fixed, stained with haematoxylin, and counted under an optical microscope (Zeiss Axiophot, Carl Zeiss, Milan, Italy) at 20× magnification. The migration and invasion experiments were conducted in triplicate for U87-MG and in duplicate for U251-MG and U138-MG. The migrated or invaded cells were reported as percentage of basal migration or invasion in the presence of DMEM/0.1% BSA, taken as 100%, and analyzed as reported in Section 2.11.\nFigure 3 Inhibition of U87-MG, U251-MG, and U138-MG GBM cellular migration by uPAcyclin. Quantitative analysis of U87-MG (A), U251-MG (B), and U138-MG (C) directional migration. A total of 11 × 10^4 U87-MG/sample or 4 × 10^4 U251-MG or U138-MG/sample were pre-treated for 40 min at 37 °C with uPAcyclin or S-peptide at the indicated concentrations, anti-αV polyclonal (anti-αV Pclonal) or monoclonal (anti-αV MoAb) antibody, or anti-GAPDH, and anti-α2 monoclonal antibody (anti-α2 MoAb), and then assayed in Boyden chambers at 37 °C, either for basal (BSA) or directional 5% FBS-dependent migration for 3 h at 37 °C. At the end of incubation, the filters were processed as described in Methods. Basal migration was taken as 100% and all values were calculated relative to that (* p-value < 0.05; ** p-value < 0.005; *** p-value < 0.001)."}, "[3]": {"conditions": "10pM, Expt n°2, replicate 1 (as labelled)"}, "[4]": {"conditions": "10pM, Expt n°2, replicate 2 (as labelled)"}, "[5]": {"conditions": "1nM, Expt n°2, replicate 1 (as labelled)"}, "[6]": {"conditions": "1nM, Expt n°2, replicate 2 (as labelled)"}},
  "note": "“And” between values parts separate entries of the source, which are not always exact repeats. Identical values can stand only once.",
  "data": [
    {"substance": "Ac-K^1P[ESPPEELK^10]-NH2 (sidechain bridge or staple) [uPAcyclin]", "values": [
      {"measurement": "FITC-uPAcyclin binding, single values", "setting": "[1]; competitor 1 pM", "value": "70 and 77 and 74 and 75"},
      {"measurement": "FITC-uPAcyclin binding, single values", "setting": "[1]; competitor 100 nM", "value": "38 and 42 and 49 and 44 and 54"},
      {"measurement": "Kdapp", "setting": "[1]; unlabeled uPAcyclin vs FITC-uPAcyclin, U87-MG, 4 °C", "value": "low nanomolar range"},
      {"measurement": "inhibition of migration", "setting": "[2]; 1 nM, U87-MG, 5% FBS, 3 h", "value": "70–80%"},
      {"measurement": "migration, in words", "setting": "[2]; 100 nM, U87-MG, 5% FBS, 3 h", "value": "below background levels"},
      {"measurement": "% of the basal", "setting": "[2]; 10pM", "value": 168, "unit": "%"},
      {"measurement": "% of the basal", "setting": "[2]; 1nM", "value": 119, "unit": "%"},
      {"measurement": "% of the basal", "setting": "[2]; 100nM", "value": 87, "unit": "%"},
      {"measurement": "% of basal, average", "setting": "[2]; 10pM", "value": 143.5, "unit": "%"},
      {"measurement": "% of basal", "setting": "[2]; 10pM, Expt n°1, replicate 1", "value": 133, "unit": "%"},
      {"measurement": "cells n°/field", "setting": "[2]; 10pM, Expt n°1, replicate 1", "value": 14, "unit": "cells n°/field"},
      {"measurement": "% of basal", "setting": "[2]; 10pM, Expt n°1, replicate 2", "value": 143, "unit": "%"},
      {"measurement": "cells n°/field", "setting": "[2]; 10pM, Expt n°1, replicate 2", "value": 15, "unit": "cells n°/field"},
      {"measurement": "% of basal", "setting": "[2]; [3]", "value": 152, "unit": "%"},
      {"measurement": "cells n°/field", "setting": "[2]; [3]", "value": 16, "unit": "cells n°/field"},
      {"measurement": "% of basal", "setting": "[2]; [4]", "value": 133, "unit": "%"},
      {"measurement": "cells n°/field", "setting": "[2]; [4]", "value": 14, "unit": "cells n°/field"},
      {"measurement": "% of basal (T-TEST list)", "setting": "[2]; 10 pM, T-TEST list value 1", "value": 143},
      {"measurement": "% of basal (T-TEST list)", "setting": "[2]; 10 pM, T-TEST list value 2", "value": 152},
      {"measurement": "% of basal (T-TEST list)", "setting": "[2]; 10 pM, T-TEST list value 3", "value": 133},
      {"measurement": "% of basal (T-TEST list)", "setting": "[2]; 10 pM, T-TEST list value 4", "value": 143},
      {"measurement": "% of basal, average", "setting": "[2]; 1nM", "value": 131, "unit": "%"},
      {"measurement": "% of basal", "setting": "[2]; 1nM, Expt n°1, replicate 1", "value": 124, "unit": "%"},
      {"measurement": "cells n°/field", "setting": "[2]; 1nM, Expt n°1, replicate 1", "value": 13, "unit": "cells n°/field"},
      {"measurement": "% of basal", "setting": "[2]; 1nM, Expt n°1, replicate 2", "value": 124, "unit": "%"},
      {"measurement": "cells n°/field", "setting": "[2]; 1nM, Expt n°1, replicate 2", "value": 13, "unit": "cells n°/field"},
      {"measurement": "% of basal", "setting": "[2]; [5]", "value": 143, "unit": "%"},
      {"measurement": "cells n°/field", "setting": "[2]; [5]", "value": 15, "unit": "cells n°/field"},
      {"measurement": "% of basal", "setting": "[2]; [6]", "value": 171, "unit": "%"},
      {"measurement": "cells n°/field", "setting": "[2]; [6]", "value": 18, "unit": "cells n°/field"},
      {"measurement": "% of basal (T-TEST list)", "setting": "[2]; 1 nM, T-TEST list value 1", "value": 133},
      {"measurement": "% of basal (T-TEST list)", "setting": "[2]; 1 nM, T-TEST list value 2", "value": 143},
      {"measurement": "% of basal (T-TEST list)", "setting": "[2]; 1 nM, T-TEST list value 3", "value": 124},
      {"measurement": "% of basal (T-TEST list)", "setting": "[2]; 1 nM, T-TEST list value 4", "value": 124}
    ]},
    {"substance": "Ac-PS[EELKPEPK]-NH2 (sidechain bridge or staple) [S-uPAcyclin, scrambled control peptide]", "values": [
      {"measurement": "competition with FITC-uPAcyclin binding, in words", "setting": "[1]; U87-MG, S-uPAcyclin 1 pM and 100 nM, vitronectin 200 µM, anti-αV 5 µg/mL, anti-α2 1 µg/mL", "value": "retains very little binding ability"},
      {"measurement": "FITC-uPAcyclin binding, single values", "setting": "[1]; competitor 1 pM, listed as Scrambled uPAcyclin", "value": "85 and 88 and 80 and 75"},
      {"measurement": "FITC-uPAcyclin binding, single values", "setting": "[1]; competitor 100 nM, listed as Scrambled uPAcyclin", "value": "74 and 80 and 82 and 75"},
      {"measurement": "% of the basal", "setting": "[2]; 10pM", "value": 169, "unit": "%"},
      {"measurement": "% of the basal", "setting": "[2]; 1nM", "value": 183, "unit": "%"},
      {"measurement": "% of the basal", "setting": "[2]; 100nM", "value": 160, "unit": "%"},
      {"measurement": "% of basal (T-TEST list)", "setting": "[2]; 10 pM, T-TEST list value 1", "value": 171},
      {"measurement": "% of basal (T-TEST list)", "setting": "[2]; 10 pM, T-TEST list value 2", "value": 152},
      {"measurement": "% of basal (T-TEST list)", "setting": "[2]; 10 pM, T-TEST list value 3", "value": 191},
      {"measurement": "% of basal (T-TEST list)", "setting": "[2]; 10 pM, T-TEST list value 4", "value": 162},
      {"measurement": "% of basal (T-TEST list)", "setting": "[2]; 1 nM, T-TEST list value 1", "value": 171},
      {"measurement": "% of basal (T-TEST list)", "setting": "[2]; 1 nM, T-TEST list value 2", "value": 190},
      {"measurement": "% of basal (T-TEST list)", "setting": "[2]; 1 nM, T-TEST list value 3", "value": 191},
      {"measurement": "% of basal (T-TEST list)", "setting": "[2]; 1 nM, T-TEST list value 4", "value": 181},
      {"measurement": "% of basal (T-TEST list)", "setting": "[2]; 100nM, T-TEST list value 2", "value": 158},
      {"measurement": "% of basal (T-TEST list)", "setting": "[2]; 100nM, T-TEST list value 3", "value": 158},
      {"measurement": "% of basal (T-TEST list)", "setting": "[2]; 100nM, T-TEST list value 4", "value": 162},
      {"measurement": "effect on migration, in words", "setting": "[2]; up to 100 nM, U87-MG (Figure 3A)", "value": "ineffective up to 100 nM"}
    ]}
  ]
}
